The text below walks through data of ChEMBL document CHEMBL1125424 (J Med Chem, 1992).

Experiment [1] has as its target Substance-P receptor (Rattus norvegicus, UniProt P14600). Briefly: Inhibition of Tachykinin receptor 1 of rat forebrain tissue.
Experiment [2] has as its system Rattus norvegicus. Put plainly: In vivo SP antagonist activity in rats using SP-induced salivation and paw edema assays. The class given is functional.
The species entered for experiment [3] is Cavia porcellus. Briefly: pA2 was evaluated from schild analyses of the guinea pig ileum contractility data. It counts as functional. The settings on record: read-out: pA2 (converted).
Experiment [4] concerns Rattus norvegicus. Put plainly: cIn vivo SP antagonist activity in rats using SP-induced salivation and paw edema assays. The class given is functional.

Sequence of Substance-P receptor (P14600 whole entry): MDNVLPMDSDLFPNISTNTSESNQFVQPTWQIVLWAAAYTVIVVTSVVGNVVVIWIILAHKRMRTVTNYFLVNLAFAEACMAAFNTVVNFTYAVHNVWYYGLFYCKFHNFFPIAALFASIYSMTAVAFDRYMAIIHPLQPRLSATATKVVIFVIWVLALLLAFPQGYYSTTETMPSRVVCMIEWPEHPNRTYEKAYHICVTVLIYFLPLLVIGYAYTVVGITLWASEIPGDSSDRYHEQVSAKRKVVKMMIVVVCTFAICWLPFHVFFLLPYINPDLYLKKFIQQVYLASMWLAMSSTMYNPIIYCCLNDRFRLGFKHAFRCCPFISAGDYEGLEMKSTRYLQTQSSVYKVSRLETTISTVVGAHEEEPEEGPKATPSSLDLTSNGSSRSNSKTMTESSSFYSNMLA

A word on the IC50: it is the concentration that inhibits the measured activity by half. Higher therefore signals a need for much substance. The compound `CCn1c(/C=C/C=C2\N(C)c3ccccc3C2(C)C)[n+](CCOC(C)=O)c2cc3ccccc3cc21` gave an IC50 in experiment [1] of 410 nM.
The same measure, in the same setting: with `CCN1/C(=C\C=C2CC(C)[n+]3c2n(CC)c2cc4ccccc4cc23)Sc2ccccc21` (stereo not given) the figure was 180 nM; with `CCN1/C(=C\C=C\c2n(CC)c3cc4ccccc4cc3[n+]2CC)C(C)(C)c2ccccc21`, 360 nM.
In experiment [1], `CCN1/C(=C\C=C\c2n(CC)c3cc4ccccc4cc3[n+]2CC)Sc2ccccc21` came in with an IC50 of 320 nM.
On the same count and under the same terms, with `CCN1/C(=C\C=C\c2n(CC)c3cc4ccccc4cc3[n+]2CC)Oc2ccccc21` the figure was 310 nM; with `CCN1/C(=C\C=C2CC[n+]3c2n(CC)c2cc4ccccc4cc23)Oc2ccccc21`, 4200 nM.
Broadly, the ED50 is the midpoint of the dose-response relation. A higher ED50 goes with a need for a large dose. `CCn1c(/C=C/C=C2\N(C)c3ccccc3C2(C)C)[n+](CC)c2cc3ccccc3cc21.[Cl-]` showed a 50% inhibitory concentration (IC50) in experiment [1] of 390 nM. This compound also came in with an ED50 in experiment [2] of 0.48 mg/kg. Moreover, the Kb in experiment [3] is 35.5 nM.
In experiment [1], `CCn1c2[n+](c3cc4ccccc4cc31)C(C)CC2=C/C=C1\N(C)c2ccc3ccccc3c2C1(C)C` (stereo not given) returned an IC50 of 310 nM.
On the same count and under the same terms, with `CCn1c(/C=C/C=C2\N(C)c3ccccc3C2(C)C)[n+](CCO)c2cc3ccccc3cc21` the figure was 450 nM.
In turn, `CCn1c(/C=C/C=C2\N(C)c3ccccc3C2(C)C)[n+](CC)c2nc3ccccc3nc21.[Cl-]` came in with an ED50 in experiment [4] of 1.73 mg/kg. Also, the Kb in experiment [3] is 58.9 nM.
Regarding `CCn1c2[n+](c3cc4ccccc4cc31)CCC2=C/C=C1\N(C)c2ccccc2C1(C)C`, the IC50 in experiment [1] was 790 nM.
Same read-out and setting: with `CCN1/C(=C\C=C2/CCC[n+]3c2n(CC)c2cc4ccccc4cc23)Sc2ccccc21` the figure was 1300 nM.
